In this test the test system is Mongrel dogs. Briefly: Recovery of LV dP/dtmax in propranolol-induced heart failure state, anesthetized dogs (Test Example 1). It counts as in vivo. Particulars: iv; for ED100: Canis lupus familiaris, dose required for recovering the reduction in LV dP/dtmax to the value before propranolol administration, anesthetized mongrel dogs; for Blood pressure: change in BP at ED100, variation coefficient relative to the values of the stable (heart failure) state; for Blood pressure / Number of heart beat: dogs; for Number of heart beat: change in HR at ED100, variation coefficient relative to the values of the stable (heart failure) state. On the procedure: Mongrel dogs of either sex, weighing 8 to 12 kg, were anesthetized with sodium pentobarbital (30 mg/kg i.v.). The left ventricular pressure (LVP) was measured with a sensor tip transducer and the maximum rate of rise of LVP (LV dP/dtmax) was calculated by an electronic differentiator. Polyethylene cannulae were inserted into the femoral artery to measure systemic blood pressure (BP) and into the femoral veins for administration or infusion of chemicals. BP was measured with a pressure transducer and heart rate (HR) by a cardiotachometer from the pressure pulse. The respective parameters were simultaneously recorded on a multichannel polygraph.
To induce and maintain heart failure state, propranolol was administered in a bolus injection (4 mg/kg i.v.) followed by an infusion (0.1 mg/kg/min i.v.). […] The dose of tested chemicals required for recovering the reduction in the LV dP/dtmax to the value before the propranolol administration was determined and defined as an ED100. The changes in BP and HR at ED100 were expressed by the variation coefficient relative to the values of the stable state.

Structures are written as SMILES.

Regarding `CCc1[nH]c(=O)c(C(C)=O)c2c1CC(c1ccncc1)CC2` (stereo not drawn) [Example 1, 4-acetyl-1-ethyl-7-(4-pyridyl)-5,6,7,8-tetrahydro-3(2H)isoquinolinone], the ED100 is 1 mg/kg, the Blood pressure is on record as -32.1% and the “Number of heart beat” value is given as “+17.3%”.

As to `CCCCc1[nH]c(=O)c(C(C)=O)c2c1CC(c1ccncc1)CC2` (stereo not drawn) [Example 2, 4-acetyl-1-butyl-7-(4-pyridyl)-5,6,7,8-tetrahydro-3-(2H)isoquinolinone], the ED100 worked out at 3 mg/kg, the Blood pressure is listed as -11.5% and the “Number of heart beat” value is “+18.3%”.

For the compound `CC(=O)c1c2c(c(C3CC3)[nH]c1=O)CC(c1ccncc1)CC2` (stereo not drawn) [Example 3], the ED100 stood at 3 mg/kg, the Blood pressure is recorded as -27.8% and the “Number of heart beat” value is “+30.6%”.

As for `CCC(=O)c1c2c(c(C)[nH]c1=O)CC(c1ccncc1)CC2` (stereo not drawn) [Example 4, 1-methyl-4-propionyl-7-(4-pyridyl)-5,6,7,8-tetrahydro-3(2H)isoquinolinone], the ED100 stood at 3 mg/kg, the Blood pressure is -18.0% and the “Number of heart beat” value was “+26.2%”.

Take `CCCC(=O)c1c2c(c(C)[nH]c1=O)CC(c1ccncc1)CC2` (stereo not drawn) [Example 5, 4-butylyl-1-methyl-7-(4-pyridyl)5,6,7,8-tetrahydro-3(2H)isoquinolinone]: the ED100 was 3 mg/kg, the Blood pressure was -20.2% and the “Number of heart beat” value is reported as “+23.7%”.

For `CCCCC(=O)c1c2c(c(C)[nH]c1=O)CC(c1ccncc1)CC2` (stereo not drawn) [Example 6, 1-methyl-7-(4-pyridyl)5,6,7,8-tetrahydro-4-valeryl-3(2H)isoquinolinone], the ED100 was 3 mg/kg, the Blood pressure is -10.5% and the “Number of heart beat” value is on record as “+19.8%”.

On to `Cc1[nH]c(=O)c(C(=O)c2ccccc2)c2c1CC(c1ccncc1)CC2` (stereo not drawn) [Example 7, 4-benzoyl-1-methyl-7-(4-pyridyl)5,6,7,8-tetrahydro-3(2H)isoquinolinone], for which the ED100 worked out at 3 mg/kg, the Blood pressure is -28.3% and the “Number of heart beat” value is listed as “+29.6%”.

As for `CCc1c2c(c(C)[nH]c1=O)CC(c1ccncc1)CC2` (stereo not drawn) [Example 8, 4-ethyl-1-methyl-7-(4-pyridyl)-5,6,7,8-tetrahydro-3(2H)isoquinolinone], the ED100 came out at 0.03 mg/kg, the Blood pressure was -22.5% and the “Number of heart beat” value is listed as “+25.3%”.

In the case of `CCCc1c2c(c(C)[nH]c1=O)CC(c1ccncc1)CC2` (stereo not drawn) [Example 9, 1-methyl-4-propyl-7-(4-pyridyl)-5,6,7,8-tetrahydro-3(2H)isoquinolinone], the ED100 was 0.3 mg/kg, the Blood pressure was -16.6% and the “Number of heart beat” value was “+14.4%”.

On to `Cc1[nH]c(=O)c(C=O)c2c1CC(c1ccncc1)CC2` (stereo not drawn) [Example 10, 4-formyl-1-methyl-7-(4-pyridyl)-5,6,7,8-tetrahydro-3(2H)isoquinolinone], for which the ED100 was 3 mg/kg, the Blood pressure is -17.5% and the “Number of heart beat” value was “+24.2%”.

For the compound `Cc1[nH]c(=O)c(C)c2c1CC(c1ccncc1)CC2` (stereo not drawn) [Example 11, 1,4-dimethyl-7-(4-pyridyl)-5,6,7,8-tetrahydro-3(2H)isoquinolinone], the ED100 stood at 0.3 mg/kg, the Blood pressure was -28.5% and the “Number of heart beat” value is “+21.0%”.

Regarding `Cc1[nH]c(=O)c(C(C)O)c2c1CC(c1ccncc1)CC2` (stereo not drawn) [Example 12, 4-(1-hydroxyethyl)-1-methyl-7-(4-pyridyl)-5,6,7,8-tetrahydro-3(2H)isoquinolinone], the ED100 is 3 mg/kg, the Blood pressure was -19.7% and the “Number of heart beat” value is “+22.5%”.

`Cc1[nH]c(=O)c(CO)c2c1CC(c1ccncc1)CC2` (stereo not drawn) [Example 13, 4-(hydroxymethyl)-1-methyl-7-(4-pyridyl)-5,6,7,8-tetrahydro-3(2H)isoquinolinone]: the ED100 was 0.3 mg/kg, the Blood pressure is -2.6% and the “Number of heart beat” value is given as “+20.0%”.

`Cc1[nH]c(=O)c(C(C)(C)O)c2c1CC(c1ccncc1)CC2` (stereo not drawn) [Example 14, 4-(2-(2-hydroxypropyl))-1-methyl-7-(4-pyridy)-5,6,7,8-tetrahydro-3(2H)isoquinolinone]: the ED100 was 0.1 mg/kg, the Blood pressure is -9.3% and the “Number of heart beat” value is recorded as “+32.6%”.

Turning to `C=C(C)c1c2c(c(C)[nH]c1=O)CC(c1ccncc1)CC2` (stereo not drawn) [Example 15, 4-isopropenyl-1-methyl-7-(4-pyridyl)-5,6,7,8-tetrahydro-3(2H)isoquinolinone], the ED100 was found to be 0.03 mg/kg, the Blood pressure is recorded as -16.4% and the “Number of heart beat” value was “+28.6%”.

Take `Cc1[nH]c(=O)c(C(F)(F)C(F)(F)F)c2c1CC(c1ccncc1)CC2` (stereo not drawn) [Example 16, 1-methyl-4-pentafluoroethyl-7-(4-pyridyl)-5,6,7,8-tetrahydro-3(2H)isoquinolinone]: the ED100 is 3 mg/kg, the Blood pressure was -15.9% and the “Number of heart beat” value is on record as “+29.1%”.

Regarding `CCc1c2c(c(C)[nH]c1=O)CC(c1ccccn1)CC2` (stereo not drawn) [Example 17, 4-ethyl-1-methyl-7-(2-pyridyl)-5,6,7,8-tetrahydro-3(2H)isoquinolinone], the ED100 turned out to be 0.1 mg/kg, the Blood pressure was -2.1% and the “Number of heart beat” value is recorded as “+15.0%”.

`Cc1[nH]c(=O)c(C(C)(C)O)c2c1CC(c1ccccn1)CC2` (stereo not drawn) [Example 18, 4-(2-(2-hydroxypropyl))-1-methyl-7-(2-pyridyl)-5,6,7,8-teterahydro-3(2H)isoquinolinone]: the ED100 stood at 0.3 mg/kg, the Blood pressure is reported as -8.3% and the “Number of heart beat” value is on record as “+30.1%”.

With `C=C(C)c1c2c(c(C)[nH]c1=O)CC(c1ccccn1)CC2` (stereo not drawn) [Example 19, 4-isopropenyl-1-methyl-7-(2-pyridyl)-5,6,7,8-teterahydro-3(2H)isoquinolinon], the ED100 turned out to be 0.1 mg/kg, the Blood pressure is on record as -15.9% and the “Number of heart beat” value is “+27.6%”.

(Values after patent US4782154A, “Isoquinoline derivatives” (Mitsui Toatsu Chemicals, Inc., priority 1986, dated 1988).)
